Reference: paper PMC11876601 (Molecular Systems Biology, 2025)
Where two headings read alike, the source gives them in different places.

What was measured:
Experiment in all cases: cells
Capan-1 [1] = test system: Capan-1; design: Viability of PDAC cell lines, ATPlite luminescence, 11-dose single-agent curve fit; settings: Homo sapiens, CAPAN-1, 72 h, read-out: EC50 [nM]
Procedure, shortened: (§1)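 cells (1000 to 5000 per well) seeded 24 h before drug addition in a screen at 0.2% final DMSO. Controls were drug-free wells (negative) and 5 µM staurosporine (positive).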

FAMPAC [2] = test system: FAMPAC; design: Viability of PDAC cell lines, ATPlite luminescence, 11-dose single-agent curve fit; settings: 72 h, read-out: EC50 [nM]
Procedure, shortened: as §1

AsPC-1 [3] = test system: AsPC-1; design: ATPlite luminescence viability of PDAC cell lines, 11-dose single-agent curves, 4-parameter fit; settings: Homo sapiens, ASPC1, 72 h, read-out: EC50 [nM]
Procedure, shortened: (§2)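 cells (1000 to 5000 per well) seeded 24 h before drug addition in a combination screen at 0.2% final DMSO. Controls were drug-free wells (negative) and 5 µM staurosporine (positive).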

Colo-357 = test system: Colo-357; design: ATPlite luminescence viability of PDAC cell lines, 11-dose single-agent curves, 4-parameter fit; settings: Homo sapiens, COLO357, 72 h, read-out: EC50 [nM]
Procedure, shortened: as §2

MiaPaCa-2 = test system: MiaPaCa-2; design: ATPlite luminescence viability of PDAC cell lines, 11-dose single-agent curves, 4-parameter fit; settings: Homo sapiens, MIA PaCa-2, 72 h, read-out: EC50 [nM]
Procedure, shortened: as §2

PANC-1 [4] = test system: PANC-1; design: ATPlite luminescence viability of PDAC cell lines, 11-dose single-agent curves, 4-parameter fit; settings: Homo sapiens, PANC-1, 72 h, read-out: EC50 [nM]
Procedure, shortened: as §2

PaTu-8988-T = test system: PaTu-8988-T; design: ATPlite luminescence viability of PDAC cell lines, 11-dose single-agent curves, 4-parameter fit; settings: Homo sapiens, PaTu 8988t, 72 h, read-out: EC50 [nM]
Procedure, shortened: as §2

Dan-G = test system: Dan-G; design: ATPlite luminescence viability of PDAC cell lines, 11-dose single-agent curves, 4-parameter fit; settings: 72 h, read-out: EC50 [nM]
Procedure, shortened: as §2

BxPC-3 = test system: BxPC-3; design: ATPlite luminescence viability of PDAC cell lines, 11-dose single-agent curves, 4-parameter fit; settings: Homo sapiens, BXPC-3, 72 h, read-out: EC50 [nM]
Procedure, shortened: as §2

HPDE = test system: HPDE; design: ATPlite luminescence viability of PDAC cell lines, 11-dose single-agent curves, 4-parameter fit; settings: HPDE, 72 h, read-out: EC50 [nM]
Procedure, shortened: as §2

HuP-T4 = test system: HuP-T4; design: ATPlite luminescence viability of PDAC cell lines, 11-dose single-agent curves, 4-parameter fit; settings: Homo sapiens, HuP-T4, 72 h, read-out: EC50 [nM]
Procedure, shortened: as §2

Suit2-07 = test system: Suit2-07; design: ATPlite luminescence viability of PDAC cell lines, 11-dose single-agent curves, 4-parameter fit; settings: 72 h, read-out: EC50 [nM]
Procedure, shortened: as §2

PSN-1 = test system: PSN-1; design: ATPlite luminescence viability of PDAC cell lines, 11-dose single-agent curves, 4-parameter fit; settings: Homo sapiens, PSN1, 72 h, read-out: EC50 [nM]
Procedure, shortened: as §2

Capan-1 [5] = test system: Capan-1; design: ATPlite luminescence viability of PDAC cell lines, 11-dose single-agent curves, 4-parameter fit; settings: Homo sapiens, CAPAN-1, 72 h, read-out: EC50 [nM]
Procedure, shortened: as §2

FAMPAC [6] = test system: FAMPAC; design: ATPlite luminescence viability of PDAC cell lines, 11-dose single-agent curves, 4-parameter fit; settings: 72 h, read-out: EC50 [nM]
Procedure, shortened: as §2

AsPC-1 [7] = test system: AsPC-1; design: Viability of PDAC cell lines, ATPlite luminescence, 11-dose single-agent curve fit; settings: Homo sapiens, ASPC1, 72 h, read-out: EC50 [nM]
Procedure, shortened: as §1

PANC-1 [8] = test system: PANC-1; design: Viability of PDAC cell lines, ATPlite luminescence, 11-dose single-agent curve fit; settings: Homo sapiens, PANC-1, 72 h, read-out: EC50 [nM]
Procedure, shortened: as §1

EC50 (AsPC-1 [3]) [nM] | EC50 (Colo-357) [nM] | EC50 (MiaPaCa-2) [nM] | EC50 (PANC-1 [4]) [nM] | EC50 (BxPC-3) [nM] | EC50 (AsPC-1 [7]) [nM] | EC50 (PANC-1 [8]) [nM] | Structure (SMILES) | EC50 (Capan-1 [1]) [nM] | EC50 (FAMPAC [2]) [nM] | EC50 (PaTu-8988-T) [nM] | EC50 (Dan-G) [nM] | EC50 (HPDE) [nM] | EC50 (HuP-T4) [nM] | EC50 (Suit2-07) [nM] | EC50 (PSN-1) [nM] | EC50 (Capan-1 [5]) [nM] | EC50 (FAMPAC [6]) [nM]
496 | 7390 | 308 | 1860 | 1420 |  |  | CC(C)NC(=O)[C@H]1CC[C@@H](n2/c(=N/C(=O)c3ccc(F)cc3)[nH]c3ccc(CN4CCC(C(C)(C)O)CC4)cc32)CC1 [Belizatinib] | 8120 | 3220 | 580 | 4630 | 1270 | > 10000 | 599 | 1340 |  | 
5990 | 5090 | > 10000 | > 10000 | 2170 |  |  | COc1cc(Nc2c(C#N)cnc3cc(OCCCN4CCN(C)CC4)c(OC)cc23)c(Cl)cc1Cl [Bosutinib] |  |  | > 10000 | 2910 | 2140 | > 10000 | 2330 | 4490 | 6130 | 3030
1030 | 403 | 572 | 703 |  |  |  | Nc1cc(C(F)(F)F)c(-c2cc(N3CCOCC3)nc(N3CCOCC3)n2)cn1 [Buparlisib] |  |  | 724 | 493 | 1130 | 1300 | 479 | 638 | 663 | 752
784 | 2930 | 563 | > 10000 | 2870 |  |  | Cc1cc(Nc2ncc(Cl)c(Nc3ccccc3S(=O)(=O)C(C)C)n2)c(OC(C)C)cc1C1CCNCC1 [Ceritinib] |  |  | 1450 | 2470 | 1550 | > 10000 | 4690 | 3390 | 5480 | 2770
> 10000 | 5080 | 2190 | 8300 | 3600 |  |  | CC1(COc2ccc3c(c2)ncn3-c2ccc3cccc(N4CCC(N)CC4)c3n2)COC1 [Crenolanib] | 3710 |  | 5450 | 5940 | 3500 | > 10000 | 4860 | 5250 |  | 3340
 | 4740 | 4.67 |  | 78.9 | > 10000 | 446 | Cc1nc(Nc2ncc(C(=O)Nc3c(C)cccc3Cl)s2)cc(N2CCN(CCO)CC2)n1 [Dasatinib] |  |  | 16.6 | 8640 | 580 | 139 | 2600 | 37.1 | 704 | 48.5
> 10000 | 4350 | 1680 | 4250 |  |  |  | CN1CCN(c2ccc3nc(-c4c(N)c5c(F)cccc5[nH]c4=O)[nH]c3c2)CC1 [Dovitinib] |  |  | 3150 | 3430 | 4540 | 3570 | 863 | 2720 | 4250 | 2170
5190 | 2870 | 791 | > 10000 | 7520 |  |  | C[C@@H]1CN(C(=O)c2ccc(NC(=O)c3cc(O[C@H](C)c4c(Cl)ccc(F)c4Cl)c(N)nn3)cc2)C[C@H](C)N1 [Ensartinib] |  |  | > 10000 | 2960 | 4130 | 2630 | 2000 | 4440 | 1990 | 3600
5960 | 4900 | 2720 | 5790 | 3500 |  |  | CN1CCN(c2ccc(C(=O)Nc3n[nH]c4ccc(Cc5cc(F)cc(F)c5)cc34)c(NC3CCOCC3)c2)CC1 [Entrectinib] |  |  | > 10000 | > 10000 | 3900 | > 10000 | > 10000 | > 10000 | 6260 | 5900
622 | 1070 | 400 | 2200 | 659 |  |  | Cc1cnc(Nc2ccc(OCCN3CCCC3)cc2)nc1Nc1cccc(S(=O)(=O)NC(C)(C)C)c1 [Fedratinib] |  |  | 274 | 1630 | 1280 | 8310 | 320 | 827 | 2030 | 1010
 | 1410 | 946 |  | 4790 | > 10000 | 658 | COc1cc(Nc2ncc(F)c(Nc3ccc4c(n3)N(COP(=O)(O)O)C(=O)C(C)(C)O4)n2)cc(OC)c1OC [Fostamatinib] |  |  | 1190 | 1010 | > 10000 | 3770 | 1360 | 2020 | 2290 | > 10000
> 10000 | 6650 | 3770 | 3250 | 3050 |  |  | Cc1ccc(NC(=O)c2ccc(CN3CCN(C)CC3)cc2)cc1Nc1nc(-c2cccnc2)cs1 [Masitinib] |  |  | 4770 | 3880 | 5500 | > 10000 | > 10000 | 4380 | 3950 | > 10000
644 | 6740 | 176 | 1840 | 493 |  |  | CC(=O)c1cc2c(o1)C(=O)c1ccccc1C2=O [Napabucasin] |  |  | 220 | 5300 | 390 | 1650 | > 10000 | 588 | 6090 | 322
6090 | 5250 | 3630 | 10000 | 4970 |  |  | Cc1ccc(C(=O)OCc2ccc([C@@H](CN)C(=O)Nc3ccc4cnccc4c3)cc2)c(C)c1 [Netarsudil] |  |  | 4320 | 1590 | > 10000 | 5200 | > 10000 | > 10000 | > 10000 | 5930
> 10000 | 347 | > 10000 | > 10000 | > 10000 |  |  | C=CC(=O)Nc1cc(Nc2nccc(-c3cn(C)c4ccccc34)n2)c(OC)cc1N(C)CCN(C)C [Osimertinib] |  |  | > 10000 | 2560 | 542 | 5300 | > 10000 | 5530 | 5860 | > 10000
529 | 1610 | 475 | 1780 | 1190 |  |  | C1=N/C2=N/c3ccc(OCCN4CCCC4)c(c3)COC/C=C/COCc3cccc(c3)C(=C1)N2 [Pacritinib] |  |  | 477 | 2100 | 1340 | 2500 | 654 | 971 | 2210 | 1280
1160 | 9250 | 335 | > 10000 | 739 |  |  | Cc1ccc(C(=O)Nc2ccc(CN3CCN(C)CC3)c(C(F)(F)F)c2)cc1C#Cc1cnc2cccnn12 [Ponatinib] |  |  | 357 | 1200 | 1930 | > 10000 | 618 | 620 | > 10000 | 830
